One compound from article PMC6435658, “Investigation into the Molecular Mechanisms underlying the Anti-proliferative and Anti-tumorigenesis activities of Diosmetin against HCT-116 Human Colorectal Cancer” (Scientific Reports, 2019) can be followed below.

One assay deals with CCD-841 cells. The assay can be described thus: MTT cytotoxicity assay, CCD-841 normal colon cells. The format is cell-based. Particulars: Homo sapiens, CCD-841 non cancerous cells. As to the method:
(§1) Cytotoxicity property of Dis against HCT-116 and CCD-841 cells were measured by MTT assay as described by Mossman[77]. Briefly, cells were treated with different concentration of Dis and 5-Fu (positive control) with serial dilution factor of 2 for 8 concentrations in 96 well-plate for different time points (24 h, 48 h and 72 h). Subsequently at the end of each time point 20 µl of MTT (5 mg/ml, Affymetrix,Cleveland, OH, USA) were added to each well followed by 4 h incubation. The solutions were aspirated after 4 h and 100 µl of DMSO were added to each well. Absorbance for each well was read at 570 nm as measured by using microplate reader (Tecan Infinite multimode, Männedorf, Switzerland). Cytotoxicity (cell death) was measured by using the following formula: Celldeath(%)=sampleOD−controlOD/controlOD100
(§2) This assay was performed in triplicates in three independent experiments. The cytotoxicity property of Dis was presented as IC50 value.
(Tetrazolium assays rely on reduction of a dye to a coloured formazan, in cell work by metabolically active cells.)

In another assay the test system is HT-29 cells. The experiment in a line: MTT cytotoxicity assay, HT-29. The format is cell-based, human. The following applies: for IC50: Homo sapiens, MTT. The procedure:
[Worded in the source for another cell line; this cell line is reported under the same test.] as §1, §2

Another assay has as its system HCT-116 cells. The assay can be described thus: MTT cytotoxicity assay, HCT-116. The format is cell-based, human. Particulars: for IC50: Homo sapiens, MTT. As to the method:
as §1, §2

≈ marks a conversion by molar mass, not a printed value.

With `O=c1[nH]cc(F)c(=O)[nH]1` [5-FU, 5-Fluorouracil, reference compound], the IC50 (commonly the point on the concentration scale where inhibition reaches its midpoint) worked out at 197 ± 14.7 µg/mL (≈ 1510 µM) in the assay on CCD-841 cells (24 h); 28.3 ± 0.67 µg/mL (≈ 218 µM) in the assay with CCD-841 cells (48 h); 14.5 ± 0.68 µg/mL (≈ 111 µM) with CCD-841 cells (72 h); 10.3 ± 2.7 µg/mL (≈ 79 µM) in the assay on HT-29 cells (HT-29, 24 h); 10.5 ± 1.3 µg/mL (≈ 80.6 µM) in the assay with HT-29 cells (HT-29, 48 h); 2.24 ± 0.53 µg/mL (≈ 17.2 µM) in the assay with HT-29 cells (HT-29, 72 h). In addition, the IC50 in the assay with HCT-116 cells (HCT-116, 24 h) is 5.43 ± 0.48 µg/mL (≈ 41.7 µM); with HCT-116 cells (HCT-116, 48 h), 3.07 ± 0.34 µg/mL (≈ 23.6 µM); in the assay with HCT-116 cells (HCT-116, 72 h) it was 1.47 ± 0.4 µg/mL (≈ 11.3 µM). In addition, the “Selectivity Index (SI)” value in the assay on HT-29 cells (IC50 CCD-841 / IC50 HT-29, 24 h) is recorded as 19.15; with HT-29 cells (IC50 CCD-841 / IC50 HT-29, 48 h), 2.7; in the assay on HT-29 cells (IC50 CCD-841 / IC50 HT-29, 72 h) it was 6.46; with HCT-116 cells (IC50 CCD-841 / IC50 HCT-116, 24 h), 36.27; in the assay with HCT-116 cells (IC50 CCD-841 / IC50 HCT-116, 48 h), 9.23; with HCT-116 cells (IC50 CCD-841 / IC50 HCT-116, 72 h), 9.85.
